Laboratory results from PubChem BioAssay AID720563 (Broad Institute, 2013).
“And” between values parts separate entries of the source, which are not always exact repeats. Identical values can stand only once. The source made the active and inactive calls.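 The calls were made as follows: active = compounds whose fitted AC50 lies at or below twice their top valid test dose; inconclusive = flat curve between -70 and -30 percent, or unreliable curve fit; inactive = the rest.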

Molecular target: Transforming acidic coiled-coil-containing protein 3 (Homo sapiens) (UniProt Q9Y6A5)
Assay: potency against ARNT PAS-B/TACC3 association – biochemical, AlphaScreen, dry powder, dose response (AID 720563)
Conditions: AlphaScreen His-ARNT PAS-B/GST-TACC3 binding, luminescence

Going from `CC1CC(C)CN(S(=O)(=O)c2ccc(C(=O)Nc3nnc(C4=COCCO4)o3)cc2)C1` (stereo unspecified) to `CC1CCCN(S(=O)(=O)c2ccc(C(=O)Nc3nnc(C4=COCCO4)o3)cc2)C1` (stereo unspecified), the AC50 falls from 35600 nM to 11200 nM (3.2-fold).

`COC(=O)c1ccc(NC(=O)CSc2ccc(-c3ccccn3)nn2)cc1` and `O=C(CSc1ccc(-c2ccccn2)nn1)Nc1ccccc1` are within 1.5-fold of each other in AC50: 630 nM for the first, 869 nM for the second.

First: CCn1nc(-c2cccnc2)nc2c(=O)n(C)c(=O)nc1-2
Second: Cc1c(C(=O)N(C)C)sc2nc(-c3ccccn3)[nH]c(=O)c12
The AC50 of the first is 22-fold lower: 78.4 nM for the first, 1750 nM for the second.

`Cc1ccc(C(=O)Nc2nc(-c3ccccn3)cs2)o1` and `O=C(Nc1nc(-c2ccccn2)cs1)c1ccco1` are within 1.5-fold of each other in AC50: 806 nM for the first, 820 nM for the second.

Compared with `CC1CCN(S(=O)(=O)c2ccc(C(=O)Nc3nnc(-c4ccno4)o3)cc2)CC1`, `CC1CCN(S(=O)(=O)c2ccc(C(=O)Nc3nnc(-c4ccco4)o3)cc2)CC1` is 3-fold higher in AC50: 11400 nM for the first, 34100 nM for the second.

Compared with `CC1CCN(S(=O)(=O)c2ccc(C(=O)Nc3nnc(-c4cccs4)o3)cc2)CC1`, `CC1CCN(S(=O)(=O)c2ccc(C(=O)Nc3nnc(-c4ccccc4)o3)cc2)CC1` is 2.4-fold lower in AC50: 49800 nM for the first, 20400 nM for the second.

First: O=C(CSc1ccc(-c2ccccn2)nn1)Nc1nccs1
Second: Cc1cccc(NC(=O)CSc2ccc(-c3ccccn3)nn2)c1C
The AC50 of the first is 3.1-fold lower: 262 nM for the first, 819 nM for the second.

Compared with `CC(C)CC(=O)NC(c1cccs1)c1ccc2cccnc2c1O` (stereo unspecified), `CC(C)C(=O)NC(c1ccco1)c1ccc2cccnc2c1O` (stereo unspecified) is 1.8-fold lower in AC50: 797 nM for the first, 452 nM for the second.

`Cc1nnc(NC(=O)c2ccc(S(=O)(=O)N3CCCCC3)cc2)o1` and `O=C(Nc1nnc(C2=COCCO2)o1)c1ccc(S(=O)(=O)N2CCCCC2)cc1` are within 1.5-fold of each other in AC50: 14300 nM for the first, 19100 nM for the second.

First: CC1CCN(S(=O)(=O)c2ccc(C(=O)Nc3nnc(-c4ccccn4)o3)cc2)CC1
Second: CSc1ccc(-c2nnc(NC(=O)c3ccc(S(=O)(=O)N4CCC(C)CC4)cc3)o2)cc1
The AC50 of the first is 6.8-fold higher: 39600 nM for the first, 5810 nM for the second.

`CC1CCN(S(=O)(=O)c2ccc(C(=O)Nc3nnc(C4CC4)o3)cc2)CC1` and `CC1CCN(S(=O)(=O)c2ccc(C(=O)Nc3nnc(C4=COCCO4)o3)cc2)CC1` are within 1.5-fold of each other in AC50: 16700 nM for the first, 17600 nM for the second.

`Nc1nc(-c2ccccn2)nc(N)c1Cc1ccc(Cl)cc1Cl` and `O=C(CSc1n[nH]c(-c2ccccn2)n1)Nc1ccc(Cl)cc1` are within 1.5-fold of each other in AC50: 649 nM for the first, 884 nM for the second.

`O=C(Nc1nnc(-c2ccc(F)cc2)o1)c1ccc(S(=O)(=O)N2CCCCC2)cc1` and `COc1ccc(-c2nnc(NC(=O)c3ccc(S(=O)(=O)N4CCC(C)CC4)cc3)o2)cc1` are within 1.5-fold of each other in AC50: 23000 nM for the first, 17800 nM for the second.

Going from `CC(C)C(=O)NC(c1ccco1)c1cc(Cl)c2cccnc2c1O` (stereo unspecified) to `CCCCC(=O)NC(c1ccco1)c1ccc2cccnc2c1O` (stereo unspecified), the AC50 falls from 5100 nM to 1390 nM (3.7-fold).

`CCc1cc2c(=O)[nH]c(-c3ccccn3)nc2s1` and `Cc1ccc(C(=O)Nc2nc(-c3ccccn3)cs2)cc1S(=O)(=O)N1CCOCC1` are within 1.5-fold of each other in AC50: 1240 nM for the first, 1110 nM for the second.

`O=C(CSc1ccc(-c2ccccn2)nn1)N1CCCC1` and `O=C(CSc1ccc(-c2ccccn2)nn1)NC1CCCCC1` are within 1.5-fold of each other in AC50: 1680 nM for the first, 1630 nM for the second.

First: O=C(Nc1nc(-c2ccccn2)cs1)c1ccc(S(=O)(=O)N2CCOCC2)cc1
Second: O=C(Nc1nc(-c2ccncc2)cs1)c1cccc(S(=O)(=O)N2CCOCC2)c1
The AC50 of the first is 190-fold lower: 342 nM for the first, 65900 nM for the second.

`O=C(Cc1ccccc1)NC(c1ccco1)c1ccc2cccnc2c1O` (stereo unspecified) and `COC(=O)Cc1cc(=O)n(-c2nc3ccccc3[nH]2)[nH]1` are within 1.5-fold of each other in AC50: 1490 nM for the first, 1910 nM for the second.

`Cc1ccc(C(=O)Nc2nc(-c3ccccc3)cs2)o1` was tested, and the AC50 was > 136000 nM (inactive).
With `c1ccc(-c2nc(-c3ccncc3)n[nH]2)nc1` the AC50 was 368 nM and 190 nM.
For `CC(C)Cc1nnc(NC(=O)c2cccc(S(=O)(=O)N3CCOCC3)c2)s1`, the AC50 was > 136000 nM (inactive).

Same assay, conditions: AlphaScreen His-ARNT PAS-B/GST-TACC3 binding, luminescence; at 68 µM (top of the series)

In the case of `FC(F)(F)c1cc(-c2nn[nH]n2)cc(C(F)(F)F)c1`, the “activity change, negative = inhibition” value is reported as “inactive”.
In the case of `Cc1ccc(S(=O)(=O)CCc2nnc(NC(=O)c3ccccc3)s2)cc1`, the “activity change, negative = inhibition” value is reported as “inactive”.
